The text below walks through data of ChEMBL document CHEMBL1122434, “Antitumor amino-substituted pyrido[3',4':4,5]pyrrolo[2,3-g]isoquinolines and pyrido[4,3-b]carbazole derivatives: synthesis and evaluation of compounds resulting from new side chain and heterocycle modifications” (J Med Chem, 1983).

For one data set, the system named is Mus musculus. Put plainly: Acute toxicity in mice (LD100) after i.p. administration. The format is organism-based. The conditions noted are these: in vivo, ip.
Data set [1] deals with L1210. Put plainly: In vitro cytotoxicity against L1210 cell line as concentration required for 50% inhibition of cell growth. The format is functional. The conditions noted are these: Mus musculus, read-out: ID50 (the source's name).
Data set [2] is described as follows: Acute toxicity in mice (LD0) after i.p. administration (highest nontoxic dose). The format is organism-based. The conditions noted are these: mouse, in vivo, ip; read-out: LD0.
Data set [3] has as its system L1210. Put plainly: Cytotoxicity against L1210 tumor cell line, activity is expressed as K (inverse value of drug concentration). As to conditions: Mus musculus. The format is functional, cell-based.
Data set [4] deals with L1210. Put plainly: Antitumor activity against L1210 leukemia cells measured as range of death at 20 mg/kg; value may range from 14 to 25. The format is functional, Mus musculus.
The subject of data set [5] is L1210. Put plainly: Antitumor activity against L1210 leukemia cells measured as Median survival time at 20 mg/kg. The format is functional, Mus musculus.
For data set [6], the system named is L1210. Put plainly: Antitumor activity against L1210 leukemia cells measured as percent increase in life span (% ILS) at 10 mg/kg. The format is functional. As to conditions: Mus musculus.
Data set [7] deals with L1210. Put plainly: Antitumor activity against L1210 leukemia cells measured as Median survival time at 10 mg/kg. The format is functional, Mus musculus.
Data set [8] concerns L1210. Put plainly: Antitumor activity against L1210 leukemia cells measured as range of death at 10 mg/kg; value may range from 14 to 19. The format is functional, Mus musculus.
Data set [9] concerns L1210. Put plainly: Antitumor activity against L1210 leukemia cells measured as Median survival time at 2.5 mg/kg. The format is functional, Mus musculus.
Data set [10] relates to L1210. Put plainly: Antitumor activity against L1210 leukemia cells measured as range of death at 2.5 mg/kg; value may range from 12 to 19. The format is functional, Mus musculus.
Data set [11] relates to L1210. Put plainly: Antitumor activity against L1210 leukemia cells measured as range of death at 10 mg/kg. The format is functional, Mus musculus.
The test system of data set [12] is L1210. Put plainly: Antitumor activity against L1210 leukemia cells measured as range of death at 20 mg/kg; value may range from 9 to 12. The format is functional, Mus musculus.
Data set [13] has as its system L1210. Put plainly: Antitumor activity against L1210 leukemia cells measured as range of death at 3.75 mg/kg; value may range from 15 to 21. The format is functional, Mus musculus.
The test system of data set [14] is L1210. Put plainly: Antitumor activity against L1210 leukemia cells measured as Median survival time at 3.75 mg/kg. The format is functional, Mus musculus.
Data set [15] has as its system L1210. Put plainly: Antitumor activity against L1210 leukemia cells measured as range of death at 10 mg/kg; value may range from 16 to 20. As to conditions: Mus musculus.
Data set [16] has as its system L1210. Put plainly: Antitumor activity against L1210 leukemia cells measured as range of death at 25 mg/kg; value may range from 14 to 19. As to conditions: Mus musculus.
Data set [17] relates to L1210. Put plainly: Antitumor activity against L1210 leukemia cells measured as Median survival time at 25 mg/kg. The format is functional, Mus musculus.
The test system of data set [18] is L1210. Put plainly: Antitumor activity against L1210 leukemia cells measured as range of death at 10 mg/kg; value may range from 12 to 25. The format is functional, Mus musculus.
Data set [19] has as its system L1210. Put plainly: Antitumor activity against L1210 leukemia cells measured as range of death at 20 mg/kg; value may range from 14 to 17. The format is functional, Mus musculus.

Numbered stars: 1 amine (or outer) side, 2 acyl side, 3 side chain; on linkers, the order of the positions; unused ones are H or OH. Bridge positions count the residues as written; N and C are the ends. Square brackets hold non-standard residues; d marks the D form. Peptide text beside a SMILES is read from it. I, II: the chains in the order shown. Actinocin(1to9) = Cc1c2oc3c(C)ccc(C(=O)[*:2])c3nc-2c(C(=O)[*:1])c(N)c1=O; NMeV = CN[C@H](C(=O)O)C(C)C; Sar = CNCC(=O)O

For the molecule `CCN(CC)CCCNc1nccc2c(C)c3[nH]c4ccncc4c3cc12` [PAZELLIPTINE], the LD100 with Mus musculus worked out at 30 mg/kg. Besides, the IC50 in the data set with L1210 [1] came out at 20 nM. Also, the MTD in [2] is 25 mg/kg. The K in the data set with L1210 [3] was found to be 50 µM⁻¹. The same molecule had a Range of death with L1210 [4] of 25 days. In the data set with L1210 [5], this molecule showed an MST of 20.5 days.

What is called ILS is the gain in survival time of treated over control animals, in per cent. For `CCN(CC)CCCNc1nccc2c(C)c3c(c(C)c12)c1cc(O)ccc1n3C`, the LD100 in the data set on Mus musculus turned out to be 25 mg/kg. Further, in the data set with L1210 [6], the increase in life span (ILS) at 10 mg/kg came to 66.5%. In the data set on L1210 [7], this molecule came in with an MST of 16.1 days. Also, the Range of death in the data set on L1210 [8] came out at 19 days. For the same molecule, the IC50 in the data set with L1210 [1] worked out at 200 nM. The MTD in data set [2] came out at 12 mg/kg. In addition, the K in the data set on L1210 [3] amounted to 5 µM⁻¹.

In turn, `CCNCCCNc1nccc2c(C)c3c(c(C)c12)c1cc(O)ccc1n3C` returned an LD100 in the data set on Mus musculus of 25 mg/kg. Besides, the IC50 in the data set on L1210 [1] was determined as 20 nM. The MTD in data set [2] came out at 10 mg/kg. Also, in the data set on L1210 [3], the K stood at 50 µM⁻¹. In addition, the MST with L1210 [9] came to 14.5 days. In the data set on L1210 [10], the Range of death turned out to be 19 days.

In the data set with Mus musculus, `COc1ccc2[nH]c3c(C)c4ccnc(NCCCN(CCCl)CCCl)c4cc3c2c1` yielded an LD100 of 20 mg/kg. The ILS at 10 mg/kg in the data set with L1210 [6] turned out to be 26%. In the data set on L1210 [7], this molecule showed an MST of 13.6 days. For the same molecule, the IC50 in the data set on L1210 [1] stood at 200 nM. In data set [2], the MTD was found to be 15 mg/kg. In addition, the K in the data set with L1210 [3] came to 5 µM⁻¹. In the data set on L1210 [11], this molecule showed a Range of death of 12 days.

`Cc1c2oc3c(C)ccc(C(=O)N[C@@H]4C(=O)N[C@H](C(C)C)C(=O)N5CCC[C@H]5C(=O)N(C)CC(=O)N(C)[C@@H](C(C)C)C(=O)O[C@@H]4C)c3nc-2c(C(=O)N[C@@H]2C(=O)N[C@H](C(C)C)C(=O)N3CCC[C@H]3C(=O)N(C)CC(=O)N(C)[C@@H](C(C)C)C(=O)O[C@@H]2C)c(N)c1=O` [DACTINOMYCIN] (I: T[dV]P[Sar][NMeV] / II: T[dV]P[Sar][NMeV]; ester I:1-I:C, II:1-II:C; linker I:N-II:N via Actinocin(1to9)): in the data set on L1210 [1], the IC50 was determined as 1 nM. The molecule also registered a K in the data set with L1210 [3] of 1000 µM⁻¹.

`CCN(CC)CCNc1nccc2c(C)c3c(cc12)c1cc(OC)ccc1n3C` registered an LD100 in the data set on Mus musculus of 30 mg/kg. Also, the IC50 with L1210 [1] came out at 2000 nM. Also, the MTD in data set [2] was determined as 20 mg/kg. This molecule also came in with a K in the data set with L1210 [3] of 0.5 µM⁻¹. Also, the Range of death in the data set with L1210 [12] is 12 days. In the data set on L1210 [5], this molecule displayed an MST of 11 days.

Regarding `COc1ccc2[nH]c3c(C)c4ccnc(NCCCN(CCO)CCO)c4c(C)c3c2c1`, in the data set with Mus musculus, the LD100 amounted to 15 mg/kg. The IC50 in the data set on L1210 [1] amounted to 400 nM. In the data set with L1210 [13], this molecule displayed a Range of death of 21 days. Besides, in data set [2], the MTD is 10 mg/kg. This molecule registered a K with L1210 [3] of 2.5 µM⁻¹. The molecule further registered an MST in the data set with L1210 [14] of 18.4 days.

`CCN(CC)CCCNc1nccc2c(C)c3[nH]c4ccncc4c3c(C)c12` came in with an LD100 in the data set on Mus musculus of 20 mg/kg. In the data set on L1210 [6], the ILS at 10 mg/kg was 46%. Moreover, the MST with L1210 [7] was 16.8 days. In the data set on L1210 [1], the IC50 was found to be 7 nM. Further, the MTD in data set [2] was determined as 10 mg/kg. The K with L1210 [3] is 143 µM⁻¹. The same molecule yielded a Range of death in the data set with L1210 [15] of 20 days.

For the molecule `Cc1c2ccnc(NCCCN(CCO)CCO)c2cc2c3c[nH]ccc-3nc12`, the LD100 with Mus musculus was 100 mg/kg. The IC50 with L1210 [1] came out at 600 nM. In [2], the MTD stood at 30 mg/kg. For the same molecule, in the data set on L1210 [3], the K worked out at 1.7 µM⁻¹. Further, the Range of death in the data set on L1210 [16] was found to be 19 days. The MST in the data set with L1210 [17] amounted to 15.5 days.

In the data set with Mus musculus, `CCNCCCNc1nccc2c(C)c3[nH]c4ccc(OC)cc4c3cc12` gave an LD100 of 30 mg/kg. This molecule also yielded a Range of death in the data set with L1210 [18] of 25 days. Moreover, the ILS at 10 mg/kg in the data set with L1210 [6] was 26%. Besides, the MST in the data set on L1210 [7] worked out at 14.8 days. In the data set with L1210 [1], the IC50 came out at 600 nM. Besides, in [2], the MTD stood at 20 mg/kg. In addition, the K with L1210 [3] was found to be 1.7 µM⁻¹.

Regarding `Cc1c2ccnc(NCC(O)CO)c2cc2c3c[nH]ccc-3nc12` (stereo unspecified), in the data set with Mus musculus, the LD100 is 60 mg/kg. In addition, in the data set on L1210 [1], the IC50 was 250 nM. For the same molecule, the MTD in data set [2] was 40 mg/kg. In the data set on L1210 [3], the K is 4 µM⁻¹. For the same molecule, in the data set on L1210 [19], the Range of death was 17 days. The molecule also registered an MST in the data set with L1210 [5] of 16 days.
